This note sets out measurements from US6709675B1, “Thixotropic formulations for filling capsules” (Pierre Fabre Medicament, priority 1998, dated 2004).

Structures can show the parent of a compound that is named as a salt.

The nature of one data set: physchem. Particulars: water.

Regarding baquimast, the solubility in water in the data set “Solubility in water” was 0.23 g/L.

In the case of `CCN(CC)C(=O)C1(c2ccccc2)CC1CN` (centres unmarked) [milnacipran hydrochloride], in the data set “physchem”, the solubility (commonly the dissolved amount per volume that the medium holds) amounted to 600 mg/mL.
